Consider five compounds from article PMC6055880, “Virtual Fragment Screening Identification of a Quinoline‐5,8‐dicarboxylic Acid Derivative as a Selective JMJD3 Inhibitor” (Chemmedchem, 2018).

Common to all, as to assay type: biochemical
The target of experiment [1] is JMJD3 (Homo sapiens, UniProt O15054). As to the kind of experiment: AlphaScreen JMJD3 demethylase inhibition. The following applies: for inhibition at 25 µM: compound at 25 μM. From the text:
(§1) Compounds 4 and 5 also appreciably decrease enzyme activity by 65 % and 60 %, respectively. […] We proceeded to investigate the inhibitory activity of 3 further by evaluation of its IC50 value against JMJD3. The results highlighted a low micromolar activity of compound 3 against JMJD3 (Table 1). […] Similar outcomes were obtained for 3 versus JMJD2C and JMJD2D (Table 1). […] Relative to JMJD1A and FBXL11, we found a decrease in enzymatic activity (Table 1) toward Jarid1A and Jarid1B of 33 % and 26 % by 3.
(§2) 2,4-pyridine dicarboxylic acid (2,4-PC) is purchased from Acros Organics (New Jersey, […]
GSK J1 is purchased from Sigma Aldrich (Italy, Catalog number SML0709).
JIB-04 is purchased from Sigma-Aldrich (St. Louis, MO, Catalog number SML0808).
AlphaLISA anti-mIgG acceptor beads from PerkinElmer (Santa Clara, CA, Catalog number […]
AlphaLISA anti-rIgG acceptor beads from PerkinElmer (Santa Clara, CA, Catalog number […]
AlphaScreen Streptavidin-conjaugated donor beads from PerkinElmer (Santa Clara, CA, […]
Primary antibody 2 from BPS (Catalog number 52140B1).
Primary antibody 5 from BPS (Catalog number 52140E).
Primary antibody 6 from BPS (Catalog number 52140F).
Primary antibody 16-2 from BPS (Catalog number 52140P2).
Primary antibody 17-3 from BPS(Catalog number 52140Q3). […]
Biotinylated histone H3 peptide substrate (UTX and JMJD3) (BPS and Anaspec). […]
JMJD3 Assay Buffer from BPS. […]
4x Detection buffer from BPS (Catalog number 52301).
All of the enzymatic reactions were conducted at room temperature for 60 minutes in a 10 µl mixture containing assay buffer, histone H3 peptide substrate, demethylase enzyme, and the test compound. These 10 µl reactions were carried out in wells of 384-well Optiplate (PerkinElmer). The serial dilution of the compounds was first performed in 100% DMSO with the highest concentration at 1 mM. Each intermediate compound dilution (in 100% DMSO) will then get directly diluted 30x fold into assay buffer for 3.3x conc (DMSO). Enzyme only and blank only wells have a final DMSO concentration of 1%. From this intermediate step, 3 µl of compound is added to 4 µl of demethylase enzyme dilution is incubated for 30 minutes at room temperature. After this incubation, 3 µl of peptide substrate is added. The final DMSO concentration is 1%.
After enzymatic reactions, 5 µl of anti-Mouse Acceptor beads (PerkinElmer, diluted 1:500 with 1x detection buffer) or 5 µl of anti-Rabbit Acceptor beads (PerkinElmer, diluted 1:500 with 1x detection buffer) and 5 µl of Primary antibody (BPS, diluted 1:200 with 1x detection buffer) were added to the reaction mix. After brief shaking, plate was incubated for 30 minutes. Finally, 10 µl of AlphaScreen Streptavidin-conjugated donor beads (Perkin, diluted 1:125 with 1x detection buffer) were added. In 30 minutes, the samples were measured in AlphaScreen microplate reader (EnSpire Alpha 2390 Multilabel Reader, PerkinElmer).
For JMJD3, Donor and acceptor beads and primary antibody were incubated for 1 h,[9] for the remaining enzymes for 30’.
5 µL of AlphaScreen assay buffer containing EDTA (30 mM) and NaCl (800 mM) to stop the […]
Except for JMJD3, the experiments were performed by BPS Bioscience.
Enzyme activity assays were performed in duplicates at each concentration. The A-screen intensity data were analyzed and compared. In the absence of the compound, the intensity in each data set was defined as 100% activity. In the absence of enzyme, the intensity in each data set was defined as 0% activity. The values of % activity versus a series of compound concentrations were then plotted using non-linear regression analysis of Sigmoidal dose-response curve generated with the equation Y=B+(T-B)/1+10((LogEC50-X)×Hill Slope), where Y=percent activity, B=minimum percent activity, T=maximum percent activity, X= l ogarithm of compound and Hill Slope=slope factor or Hill coefficient. The IC 50 value was determined by the concentration causing a half -maximal percent activity.
A general note: Bead proximity is the source of the signal in Alpha formats.

For experiment [2], the target named is T1, FBXL11 (Homo sapiens, UniProt Q9Y2K7).
T1 construct: purchased BPS Bioscience (contract assay)
T1 sequence (Q9Y2K7 1-1162): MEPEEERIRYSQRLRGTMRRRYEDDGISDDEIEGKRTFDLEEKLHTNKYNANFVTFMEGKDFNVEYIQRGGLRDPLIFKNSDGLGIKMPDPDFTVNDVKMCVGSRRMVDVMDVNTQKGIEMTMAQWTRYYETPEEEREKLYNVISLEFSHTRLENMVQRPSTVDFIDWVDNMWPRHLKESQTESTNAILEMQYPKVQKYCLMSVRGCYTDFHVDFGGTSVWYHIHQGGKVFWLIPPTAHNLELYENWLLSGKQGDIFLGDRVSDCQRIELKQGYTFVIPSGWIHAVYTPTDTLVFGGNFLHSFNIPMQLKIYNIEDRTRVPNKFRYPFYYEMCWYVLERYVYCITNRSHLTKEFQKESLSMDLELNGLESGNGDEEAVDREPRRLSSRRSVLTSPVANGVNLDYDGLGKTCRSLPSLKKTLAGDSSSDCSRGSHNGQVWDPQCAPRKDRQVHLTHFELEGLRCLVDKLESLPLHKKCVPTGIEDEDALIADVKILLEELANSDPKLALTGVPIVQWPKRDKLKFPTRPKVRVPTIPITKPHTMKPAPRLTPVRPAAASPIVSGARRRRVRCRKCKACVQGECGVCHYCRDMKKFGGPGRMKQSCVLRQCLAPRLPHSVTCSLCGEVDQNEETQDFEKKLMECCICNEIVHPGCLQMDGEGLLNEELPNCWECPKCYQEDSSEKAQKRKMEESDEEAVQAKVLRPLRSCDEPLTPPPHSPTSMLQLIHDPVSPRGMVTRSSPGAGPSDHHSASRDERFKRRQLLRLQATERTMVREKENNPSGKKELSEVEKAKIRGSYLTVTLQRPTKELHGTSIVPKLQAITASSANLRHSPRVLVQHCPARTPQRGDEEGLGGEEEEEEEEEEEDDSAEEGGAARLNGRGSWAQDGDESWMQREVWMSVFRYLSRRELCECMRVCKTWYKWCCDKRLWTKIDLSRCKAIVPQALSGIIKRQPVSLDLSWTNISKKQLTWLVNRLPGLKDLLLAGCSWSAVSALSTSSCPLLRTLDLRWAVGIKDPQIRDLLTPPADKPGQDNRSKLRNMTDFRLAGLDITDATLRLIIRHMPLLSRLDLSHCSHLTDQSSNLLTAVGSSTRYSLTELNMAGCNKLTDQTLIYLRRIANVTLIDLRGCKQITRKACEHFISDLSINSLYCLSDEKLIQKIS
The experiment in a line: AlphaScreen FBXL11 demethylase inhibition (selectivity).
From the text: as §1, §2
(§3) GSK J1 is purchased from Sigma Aldrich (Italy, Catalog number SML0709). […]
(§4) After enzymatic reactions, 5 µl of anti-Mouse Acceptor beads (PerkinElmer, diluted 1:500 with 1x detection buffer) or 5 µl of anti-Rabbit Acceptor beads (PerkinElmer, diluted 1:500 with 1x detection buffer) and 5 µl of Primary antibody (BPS, diluted 1:200 with 1x detection buffer) were added to the reaction mix. […] In 30 minutes, the samples were measured in AlphaScreen microplate reader (EnSpire Alpha 2390 Multilabel Reader, PerkinElmer). […]
(§5) Enzyme activity assays were performed in duplicates at each concentration. The A-screen intensity data were analyzed and compared. […] The IC 50 value was determined by the concentration causing a half -maximal percent activity.

In experiment [3] the target is T2, UTX (Homo sapiens, UniProt O15550).
T2 construct: purchased BPS Bioscience (contract assay)
The experiment in a line: AlphaScreen UTX demethylase inhibition (selectivity). Particulars: at 10 μM; NI = no significant inhibition at 10 μM.
From the text: as §1, §2, §3, §4, §5

In experiment [4] the target is T3, Jarid1B (Homo sapiens, UniProt Q9UGL1).
T3 construct: purchased BPS Bioscience (contract assay)
T3 sequence (Q9UGL1 whole entry): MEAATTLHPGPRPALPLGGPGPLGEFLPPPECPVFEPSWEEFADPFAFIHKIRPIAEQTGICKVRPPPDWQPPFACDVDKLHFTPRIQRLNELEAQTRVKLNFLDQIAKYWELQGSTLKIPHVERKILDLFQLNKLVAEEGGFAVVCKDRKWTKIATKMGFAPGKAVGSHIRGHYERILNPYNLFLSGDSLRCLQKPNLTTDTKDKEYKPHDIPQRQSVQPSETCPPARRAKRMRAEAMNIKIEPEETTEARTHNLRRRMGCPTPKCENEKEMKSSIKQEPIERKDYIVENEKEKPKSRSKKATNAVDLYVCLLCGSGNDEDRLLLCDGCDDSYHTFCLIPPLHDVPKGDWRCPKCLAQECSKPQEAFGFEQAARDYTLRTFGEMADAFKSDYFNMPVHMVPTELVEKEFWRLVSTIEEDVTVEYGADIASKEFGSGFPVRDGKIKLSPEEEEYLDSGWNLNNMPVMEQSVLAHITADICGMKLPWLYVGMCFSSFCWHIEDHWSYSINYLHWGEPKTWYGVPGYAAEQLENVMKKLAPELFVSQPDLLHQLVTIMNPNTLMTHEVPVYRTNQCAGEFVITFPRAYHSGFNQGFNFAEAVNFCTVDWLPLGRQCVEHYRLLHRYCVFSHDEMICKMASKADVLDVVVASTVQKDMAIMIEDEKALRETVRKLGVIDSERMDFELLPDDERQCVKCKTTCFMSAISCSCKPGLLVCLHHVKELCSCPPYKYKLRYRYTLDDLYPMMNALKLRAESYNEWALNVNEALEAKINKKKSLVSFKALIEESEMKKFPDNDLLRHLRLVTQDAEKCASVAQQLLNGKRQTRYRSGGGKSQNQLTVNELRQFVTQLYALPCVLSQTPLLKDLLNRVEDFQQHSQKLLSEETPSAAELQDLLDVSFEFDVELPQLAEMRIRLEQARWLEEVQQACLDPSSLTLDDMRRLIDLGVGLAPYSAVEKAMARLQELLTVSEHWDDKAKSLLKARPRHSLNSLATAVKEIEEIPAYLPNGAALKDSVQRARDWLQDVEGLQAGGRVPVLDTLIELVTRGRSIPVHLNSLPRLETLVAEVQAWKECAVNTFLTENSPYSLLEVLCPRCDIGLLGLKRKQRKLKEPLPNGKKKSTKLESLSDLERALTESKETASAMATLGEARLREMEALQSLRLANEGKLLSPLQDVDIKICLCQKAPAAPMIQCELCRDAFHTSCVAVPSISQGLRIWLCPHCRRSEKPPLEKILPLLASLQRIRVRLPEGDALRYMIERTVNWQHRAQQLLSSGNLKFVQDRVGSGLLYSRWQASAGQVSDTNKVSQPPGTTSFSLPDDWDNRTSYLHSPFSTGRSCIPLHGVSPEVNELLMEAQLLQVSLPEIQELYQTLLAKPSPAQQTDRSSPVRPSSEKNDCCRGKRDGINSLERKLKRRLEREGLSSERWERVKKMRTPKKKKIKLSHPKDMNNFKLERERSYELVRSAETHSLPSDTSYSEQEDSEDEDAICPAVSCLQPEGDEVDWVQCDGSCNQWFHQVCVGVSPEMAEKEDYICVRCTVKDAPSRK
As to the kind of experiment: AlphaScreen Jarid1B demethylase inhibition (selectivity).
From the text: as §1, §2, §3, §4, §5

For experiment [5], the target named is T4, JMJD1A (Homo sapiens, UniProt Q9Y4C1).
T4 construct: purchased BPS Bioscience (contract assay)
T4 sequence (Q9Y4C1 1-1321): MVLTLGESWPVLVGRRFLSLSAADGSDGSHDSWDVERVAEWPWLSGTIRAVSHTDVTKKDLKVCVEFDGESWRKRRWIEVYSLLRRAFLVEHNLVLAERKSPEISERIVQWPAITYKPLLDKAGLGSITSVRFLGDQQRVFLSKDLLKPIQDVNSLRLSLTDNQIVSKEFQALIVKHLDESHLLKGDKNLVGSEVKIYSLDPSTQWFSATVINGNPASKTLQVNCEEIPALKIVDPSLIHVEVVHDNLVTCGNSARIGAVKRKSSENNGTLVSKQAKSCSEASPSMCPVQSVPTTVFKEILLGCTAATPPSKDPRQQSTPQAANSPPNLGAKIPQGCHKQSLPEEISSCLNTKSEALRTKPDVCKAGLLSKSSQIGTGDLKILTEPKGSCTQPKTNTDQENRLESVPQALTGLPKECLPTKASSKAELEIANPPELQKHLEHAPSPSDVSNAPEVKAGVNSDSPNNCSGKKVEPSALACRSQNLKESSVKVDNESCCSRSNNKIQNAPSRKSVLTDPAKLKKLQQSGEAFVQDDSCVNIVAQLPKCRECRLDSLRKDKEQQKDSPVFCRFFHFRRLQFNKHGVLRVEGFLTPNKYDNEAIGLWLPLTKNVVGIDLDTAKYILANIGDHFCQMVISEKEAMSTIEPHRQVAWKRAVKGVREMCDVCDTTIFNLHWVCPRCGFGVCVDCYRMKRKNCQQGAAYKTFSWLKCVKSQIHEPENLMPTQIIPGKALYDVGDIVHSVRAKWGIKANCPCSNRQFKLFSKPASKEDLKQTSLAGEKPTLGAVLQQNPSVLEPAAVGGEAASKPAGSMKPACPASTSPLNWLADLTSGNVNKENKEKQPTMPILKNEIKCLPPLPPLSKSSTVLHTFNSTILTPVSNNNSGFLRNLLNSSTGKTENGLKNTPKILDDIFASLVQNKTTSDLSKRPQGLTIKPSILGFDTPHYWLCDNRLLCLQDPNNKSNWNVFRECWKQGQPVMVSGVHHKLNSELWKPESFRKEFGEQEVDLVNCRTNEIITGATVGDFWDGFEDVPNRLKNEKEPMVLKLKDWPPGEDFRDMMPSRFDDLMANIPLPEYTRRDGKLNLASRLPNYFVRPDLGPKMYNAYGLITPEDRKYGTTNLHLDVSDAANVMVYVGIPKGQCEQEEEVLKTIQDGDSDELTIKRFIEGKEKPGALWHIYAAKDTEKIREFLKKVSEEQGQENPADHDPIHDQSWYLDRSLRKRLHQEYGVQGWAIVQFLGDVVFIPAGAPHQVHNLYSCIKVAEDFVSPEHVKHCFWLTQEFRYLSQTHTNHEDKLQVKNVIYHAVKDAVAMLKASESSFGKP
As to the kind of experiment: AlphaScreen JMJD1A demethylase inhibition (selectivity).
From the text: as §1, §2, §3, §4, §5

Experiment [6] deals with T5, Jarid1A (Homo sapiens, UniProt P29375).
T5 construct: purchased BPS Bioscience (contract assay)
T5 sequence (P29375 whole entry): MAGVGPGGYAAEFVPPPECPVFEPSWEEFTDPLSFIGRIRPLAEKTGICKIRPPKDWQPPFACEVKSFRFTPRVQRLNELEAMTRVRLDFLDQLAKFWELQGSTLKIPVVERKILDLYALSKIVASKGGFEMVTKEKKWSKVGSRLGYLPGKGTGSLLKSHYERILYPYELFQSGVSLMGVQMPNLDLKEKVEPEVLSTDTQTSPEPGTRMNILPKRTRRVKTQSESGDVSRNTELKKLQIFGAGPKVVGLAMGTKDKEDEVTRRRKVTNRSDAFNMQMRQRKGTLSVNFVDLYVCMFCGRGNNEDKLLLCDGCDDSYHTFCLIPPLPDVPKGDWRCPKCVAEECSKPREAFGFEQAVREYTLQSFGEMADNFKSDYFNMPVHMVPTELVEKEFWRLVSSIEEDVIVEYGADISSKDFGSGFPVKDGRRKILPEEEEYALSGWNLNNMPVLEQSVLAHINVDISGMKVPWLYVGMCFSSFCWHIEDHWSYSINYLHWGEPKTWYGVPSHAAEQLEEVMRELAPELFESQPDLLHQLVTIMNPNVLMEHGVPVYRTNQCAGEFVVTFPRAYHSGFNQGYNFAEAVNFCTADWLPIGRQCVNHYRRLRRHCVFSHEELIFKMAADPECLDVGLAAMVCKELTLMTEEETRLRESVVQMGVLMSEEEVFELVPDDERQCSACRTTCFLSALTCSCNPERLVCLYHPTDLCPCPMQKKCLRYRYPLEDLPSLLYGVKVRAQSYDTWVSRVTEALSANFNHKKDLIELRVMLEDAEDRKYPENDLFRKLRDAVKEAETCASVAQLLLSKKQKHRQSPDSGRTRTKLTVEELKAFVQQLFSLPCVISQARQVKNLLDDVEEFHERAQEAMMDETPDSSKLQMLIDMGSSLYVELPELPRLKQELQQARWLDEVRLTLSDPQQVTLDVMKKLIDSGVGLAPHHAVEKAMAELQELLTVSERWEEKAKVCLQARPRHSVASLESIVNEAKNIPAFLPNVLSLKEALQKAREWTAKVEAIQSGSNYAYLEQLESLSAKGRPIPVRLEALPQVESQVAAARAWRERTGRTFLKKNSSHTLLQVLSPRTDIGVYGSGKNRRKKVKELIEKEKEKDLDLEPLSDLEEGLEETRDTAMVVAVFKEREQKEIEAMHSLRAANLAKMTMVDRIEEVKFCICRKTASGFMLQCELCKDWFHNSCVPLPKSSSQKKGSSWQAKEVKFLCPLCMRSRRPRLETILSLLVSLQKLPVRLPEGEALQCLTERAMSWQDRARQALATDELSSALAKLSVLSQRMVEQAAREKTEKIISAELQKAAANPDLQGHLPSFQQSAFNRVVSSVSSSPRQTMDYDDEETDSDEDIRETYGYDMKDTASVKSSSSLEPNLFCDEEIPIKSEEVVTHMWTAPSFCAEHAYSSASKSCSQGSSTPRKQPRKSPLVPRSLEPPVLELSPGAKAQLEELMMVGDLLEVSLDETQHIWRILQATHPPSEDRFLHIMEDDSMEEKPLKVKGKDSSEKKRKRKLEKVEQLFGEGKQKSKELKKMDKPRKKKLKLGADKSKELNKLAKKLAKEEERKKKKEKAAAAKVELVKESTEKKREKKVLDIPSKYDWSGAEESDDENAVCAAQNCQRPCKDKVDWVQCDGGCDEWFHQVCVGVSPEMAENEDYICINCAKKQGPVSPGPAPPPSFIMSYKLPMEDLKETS
The experiment in a line: AlphaScreen Jarid1A demethylase inhibition (selectivity).
From the text: as §1, §2, §3, §4, §5

Chain of JMJD3 (O15054 whole entry): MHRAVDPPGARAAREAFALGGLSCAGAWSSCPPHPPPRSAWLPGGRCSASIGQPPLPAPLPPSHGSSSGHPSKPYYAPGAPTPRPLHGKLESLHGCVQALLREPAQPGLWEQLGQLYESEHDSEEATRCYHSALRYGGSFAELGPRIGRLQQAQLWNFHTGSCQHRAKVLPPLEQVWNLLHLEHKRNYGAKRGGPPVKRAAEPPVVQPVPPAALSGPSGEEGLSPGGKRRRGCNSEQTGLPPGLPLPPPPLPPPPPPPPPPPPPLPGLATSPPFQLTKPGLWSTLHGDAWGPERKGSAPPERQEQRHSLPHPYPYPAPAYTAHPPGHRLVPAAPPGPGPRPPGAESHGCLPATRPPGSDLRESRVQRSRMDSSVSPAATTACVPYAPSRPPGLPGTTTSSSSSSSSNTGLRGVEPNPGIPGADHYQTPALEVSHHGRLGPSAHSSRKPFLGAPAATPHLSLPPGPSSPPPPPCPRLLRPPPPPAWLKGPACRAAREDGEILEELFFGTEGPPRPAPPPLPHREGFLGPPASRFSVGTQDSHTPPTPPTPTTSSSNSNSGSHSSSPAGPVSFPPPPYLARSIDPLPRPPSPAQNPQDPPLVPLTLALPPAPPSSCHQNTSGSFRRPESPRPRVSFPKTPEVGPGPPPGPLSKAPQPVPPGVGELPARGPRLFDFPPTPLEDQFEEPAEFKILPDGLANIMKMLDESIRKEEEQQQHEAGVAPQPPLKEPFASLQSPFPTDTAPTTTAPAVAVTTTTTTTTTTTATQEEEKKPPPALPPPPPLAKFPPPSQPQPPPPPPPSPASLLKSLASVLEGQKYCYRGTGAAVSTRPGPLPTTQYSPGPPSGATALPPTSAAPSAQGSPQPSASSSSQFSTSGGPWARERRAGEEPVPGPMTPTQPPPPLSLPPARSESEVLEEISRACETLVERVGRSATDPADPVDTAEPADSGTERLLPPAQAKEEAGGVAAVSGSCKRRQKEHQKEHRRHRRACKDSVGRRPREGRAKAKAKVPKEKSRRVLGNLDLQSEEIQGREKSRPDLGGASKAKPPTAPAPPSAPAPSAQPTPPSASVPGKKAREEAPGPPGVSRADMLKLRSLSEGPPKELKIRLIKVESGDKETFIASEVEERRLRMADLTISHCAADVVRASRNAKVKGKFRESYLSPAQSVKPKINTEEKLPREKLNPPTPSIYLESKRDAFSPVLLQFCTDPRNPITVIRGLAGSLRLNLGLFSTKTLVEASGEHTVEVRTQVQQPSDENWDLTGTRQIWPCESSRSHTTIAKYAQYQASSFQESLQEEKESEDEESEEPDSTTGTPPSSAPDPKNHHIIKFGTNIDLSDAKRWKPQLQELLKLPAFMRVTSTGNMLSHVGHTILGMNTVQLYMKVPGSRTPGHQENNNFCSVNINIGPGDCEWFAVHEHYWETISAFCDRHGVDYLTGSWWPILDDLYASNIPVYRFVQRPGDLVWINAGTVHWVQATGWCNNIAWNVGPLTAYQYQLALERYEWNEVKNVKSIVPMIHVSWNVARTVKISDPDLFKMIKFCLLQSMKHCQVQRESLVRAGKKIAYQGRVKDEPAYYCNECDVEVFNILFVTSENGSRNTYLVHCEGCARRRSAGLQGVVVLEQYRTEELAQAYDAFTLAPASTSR

Compound `COc1ncc(-c2cnc3c(C(=O)O)ccc(C(=O)O)c3c2)c(OC)n1` [Compound 3, 3‐(2,4‐dimethoxypyrimidin‐5‐yl)quinoline‐5,8‐dicarboxylic acid] displayed an inhibition at 25 µM in experiment [1] of 90%. For the same compound, the IC50 is 1.52 ± 0.5 µM in experiment [1] (read-out: IC50±SEM JMJD3); > 10 µM in experiment [2] (footnote b of Table 1); > 10 µM in experiment [4] (footnote b of Table 1); > 10 µM in experiment [5] (footnote b of Table 1); > 10 µM in experiment [6] (footnote b of Table 1). Moreover, the inhibition at 10 µM in experiment [2] (at 10 μM, read-out: Percent Inhibition FBXL11) turned out to be 15%; in experiment [4] (at 10 μM, read-out: Percent Inhibition Jarid1B), 26%; in experiment [5] (at 10 μM, read-out: Percent Inhibition JMJD1A) it was 12%; in experiment [6] (at 10 μM, read-out: Percent Inhibition Jarid1A), 33%. Besides, the “Percent Inhibition UTX” value in experiment [3] is “no significant inhibition”.

For the compound `NS(=O)(=O)c1ccc(-c2cnc3c(C(=O)O)ccc(C(=O)O)c3c2)cc1` [Compound 4], the inhibition at 25 µM in experiment [1] is 65%.

As to `O=C(O)c1ccc(-c2cnc3c(C(=O)O)ccc(C(=O)O)c3c2)s1` [Compound 5], the inhibition at 25 µM in experiment [1] turned out to be 60%.

Consider `COc1cc(-c2cnc3c(C(=O)O)ccc(C(=O)O)c3c2)c(OC)nn1` [Compound 6], for which the inhibition at 25 µM in experiment [1] was ~25%.

Regarding `COc1cc(-c2cnc3c(C(=O)O)ccc(C(=O)O)c3c2)ccc1F` [Compound 7], in experiment [1], the inhibition at 25 µM was ~12%.

What is called inhibition is how much of the control response was suppressed. Usually IC50 stands for the concentration that inhibits the measured activity by half.
